# In patent publication USRE47141E1, “Methods of treating fibrosis, cancer and vascular injuries” (EWHA University—Industry Collaboration Foundation, priority 2010, dated 2018):
# Assays:
# DAPK1 = DAPK1 (Homo sapiens (Human), UniProt P53355); assay: Kinase selectivity profiling; assay type: biochemical
# Description: (§1) Kinase assays were performed in 96-well FlashPlates™ from Perkin Elmer in a […]. […] The reaction cocktail contained 70 mM HEPES-NaOH, pH 7.5, 3 mM MnCl2, 3 μM Na3VO4, 1.2 mM DTT, 1 μM [γ-^33P]-ATP (approximately 6×10^5 cpm per well), protein kinase (variable amounts), and substrate (variable amounts). The reaction cocktails were incubated at 30° C. for 60 min. The reaction was stopped with 50 μL of 2% (v/v) H3PO4, and plates were aspirated and washed two times with 200 μL 0.9% (w/v) NaCl. ALL assays were performed with a BeckmanCoulter Biomek 2000/SL robotic system. Incorporation of ^33Pi (counting of “cpm”) was determined with a microplate scintillation counter.
# CDK1/CycA = CDK1/CycA (Homo sapiens (Human), UniProt P06493); assay: Kinase selectivity profiling; assay type: biochemical
# Description: as §1
# PKA = PKA (Homo sapiens (Human), UniProt P17612); assay: Kinase selectivity profiling; assay type: biochemical
# Description: as §1
# VEGF-R1 = VEGF-R1 (Homo sapiens (Human), UniProt P17948); assay: Kinase selectivity profiling; assay type: biochemical
# Description: as §1
# MET wt = MET wt (Homo sapiens (Human), UniProt P08581); assay: Kinase selectivity profiling; assay type: biochemical
# Description: as §1
# PKCα = PKCα (Homo sapiens (Human), UniProt P17252); assay: Kinase selectivity profiling; assay type: biochemical
# Description: as §1
# ROCK1 = ROCK1 (Homo sapiens (Human), UniProt Q13464); assay: Kinase selectivity profiling; assay type: biochemical
# Description: as §1
# PAK1 = PAK1 (Homo sapiens (Human), UniProt Q13153); assay: Kinase selectivity profiling; assay type: biochemical
# Description: as §1
# MCF10A cells [1] = assay: Wound healing assay; assay type: cell-based; details: TGF-β1 2 ng/mL, 1 μM, 16 h
# Description: MCF10A cells were seeded at 2×10^5 cells/well in 6-well plate. When each well was occupied by cells over 80% of the area, 10% FBS was changed to 0.2% FBS. […] Wound area change from 0 to 16 h was calculated based on Image J program (National Institutes of Health, MD, USA) based on phase-contrast images of cells taken by microscope.
# [2] = tested on: TGF-β1-induced Smad2/3 nuclear translocation in MCF10A cells; assay: Immunofluorescence assay; assay type: cell-based; details: TGF-β1 2 ng/mL, 1 μM, 2 h
# Description: MCF10A cells were plated on the cover glass in 6-well plate at 2×10^5 cells/well. After 12 h, when cells were attached, 10% FBS medium was changed to 0.5% FBS medium. […] Then, cells were fixed with 4% formaldehyde solution for 30 min at room temperature and quenched with quenching solution (50 mM NH4Cl in PBS) for 15 min. After being washed three times with PBS, cells were incubated with blocking/permeabilization solution (1% BSA and 0.1% Triton X-100 in PBS) for 1 h at room temperature and incubated with anti-Smad2/3 antibody (BD Biosciences, Franklin Lakes, N.J., USA) overnight at 4° C. Fluorescence was visualized by Cy3-conjugated goat anti-mouse IgG (Jackson ImmunoResearch Laboratories, Bar Harbor, Me., USA). Nuclei of the same cells were stained with DAPI solution. Cells were analyzed using the LSM 510 META laser confocal microscopy system (Carl Zeiss, Germany).
# MCF10A cells [3] = assay: Cell growth study (SRB assay), MCF10A; assay type: cell-based; details: 0.2% serum medium, four days
# Description: Either 4T1 cells or MCF10A cells were seeded in 96-well plate at 5×10^3 cells per well. […] After incubation for four days, cell viability was determined by SRB assay.
# [4] = read-out: % inhibition at 1 μM, 1 μM
# [5] = read-out: % inhibition at 10 μM, 10 μM
# Chain of PAK1 (Q13153 whole entry): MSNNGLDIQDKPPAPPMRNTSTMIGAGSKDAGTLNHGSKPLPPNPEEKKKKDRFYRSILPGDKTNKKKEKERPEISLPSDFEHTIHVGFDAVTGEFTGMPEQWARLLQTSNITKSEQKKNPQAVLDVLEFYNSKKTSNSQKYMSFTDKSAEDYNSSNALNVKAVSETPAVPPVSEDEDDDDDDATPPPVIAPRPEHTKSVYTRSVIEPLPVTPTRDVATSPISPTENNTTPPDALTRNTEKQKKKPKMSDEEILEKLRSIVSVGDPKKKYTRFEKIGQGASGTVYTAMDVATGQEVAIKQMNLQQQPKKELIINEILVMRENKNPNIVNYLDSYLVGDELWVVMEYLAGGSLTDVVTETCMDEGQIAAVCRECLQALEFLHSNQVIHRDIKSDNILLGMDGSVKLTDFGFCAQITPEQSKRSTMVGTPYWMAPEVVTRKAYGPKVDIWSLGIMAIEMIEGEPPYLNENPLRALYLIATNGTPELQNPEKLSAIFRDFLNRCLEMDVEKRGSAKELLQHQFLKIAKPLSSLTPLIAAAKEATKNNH
# Chain of DAPK1 (P53355 whole entry, species assumed): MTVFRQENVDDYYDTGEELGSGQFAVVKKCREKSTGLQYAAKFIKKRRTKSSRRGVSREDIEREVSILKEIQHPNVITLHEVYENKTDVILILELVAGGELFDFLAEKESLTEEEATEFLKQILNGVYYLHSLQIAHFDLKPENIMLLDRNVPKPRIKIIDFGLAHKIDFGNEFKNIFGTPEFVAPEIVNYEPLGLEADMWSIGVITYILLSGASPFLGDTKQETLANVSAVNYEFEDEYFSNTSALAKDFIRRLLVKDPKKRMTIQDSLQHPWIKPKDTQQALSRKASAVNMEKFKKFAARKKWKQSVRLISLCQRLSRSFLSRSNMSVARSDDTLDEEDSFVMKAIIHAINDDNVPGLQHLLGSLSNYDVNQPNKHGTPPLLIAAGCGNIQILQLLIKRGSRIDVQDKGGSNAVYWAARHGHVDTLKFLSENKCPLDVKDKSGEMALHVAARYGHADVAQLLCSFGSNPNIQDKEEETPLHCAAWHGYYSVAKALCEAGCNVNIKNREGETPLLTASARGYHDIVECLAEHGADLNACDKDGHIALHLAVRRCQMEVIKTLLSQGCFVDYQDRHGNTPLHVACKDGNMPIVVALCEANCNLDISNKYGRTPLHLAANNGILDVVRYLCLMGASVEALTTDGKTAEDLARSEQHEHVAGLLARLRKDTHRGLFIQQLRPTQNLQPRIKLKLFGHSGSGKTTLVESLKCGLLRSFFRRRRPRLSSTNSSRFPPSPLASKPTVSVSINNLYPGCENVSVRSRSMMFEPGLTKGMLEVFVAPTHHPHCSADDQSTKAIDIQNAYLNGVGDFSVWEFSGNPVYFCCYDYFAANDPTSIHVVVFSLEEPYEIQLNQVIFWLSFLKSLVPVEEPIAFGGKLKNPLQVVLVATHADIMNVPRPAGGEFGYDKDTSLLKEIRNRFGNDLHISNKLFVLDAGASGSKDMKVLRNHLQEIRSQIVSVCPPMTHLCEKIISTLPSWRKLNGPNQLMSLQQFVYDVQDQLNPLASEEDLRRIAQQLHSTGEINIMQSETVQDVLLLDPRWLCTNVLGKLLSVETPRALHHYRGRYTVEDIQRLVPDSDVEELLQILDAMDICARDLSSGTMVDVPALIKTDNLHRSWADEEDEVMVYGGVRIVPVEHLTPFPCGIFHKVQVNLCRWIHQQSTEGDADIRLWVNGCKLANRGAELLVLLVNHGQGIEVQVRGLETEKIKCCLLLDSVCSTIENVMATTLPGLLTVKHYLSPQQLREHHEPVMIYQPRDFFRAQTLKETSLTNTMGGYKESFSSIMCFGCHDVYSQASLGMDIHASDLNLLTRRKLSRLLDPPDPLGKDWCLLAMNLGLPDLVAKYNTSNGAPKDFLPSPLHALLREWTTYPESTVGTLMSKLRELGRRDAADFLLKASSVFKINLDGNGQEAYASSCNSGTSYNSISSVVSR
# Chain of ROCK1 (Q13464 whole entry, species assumed): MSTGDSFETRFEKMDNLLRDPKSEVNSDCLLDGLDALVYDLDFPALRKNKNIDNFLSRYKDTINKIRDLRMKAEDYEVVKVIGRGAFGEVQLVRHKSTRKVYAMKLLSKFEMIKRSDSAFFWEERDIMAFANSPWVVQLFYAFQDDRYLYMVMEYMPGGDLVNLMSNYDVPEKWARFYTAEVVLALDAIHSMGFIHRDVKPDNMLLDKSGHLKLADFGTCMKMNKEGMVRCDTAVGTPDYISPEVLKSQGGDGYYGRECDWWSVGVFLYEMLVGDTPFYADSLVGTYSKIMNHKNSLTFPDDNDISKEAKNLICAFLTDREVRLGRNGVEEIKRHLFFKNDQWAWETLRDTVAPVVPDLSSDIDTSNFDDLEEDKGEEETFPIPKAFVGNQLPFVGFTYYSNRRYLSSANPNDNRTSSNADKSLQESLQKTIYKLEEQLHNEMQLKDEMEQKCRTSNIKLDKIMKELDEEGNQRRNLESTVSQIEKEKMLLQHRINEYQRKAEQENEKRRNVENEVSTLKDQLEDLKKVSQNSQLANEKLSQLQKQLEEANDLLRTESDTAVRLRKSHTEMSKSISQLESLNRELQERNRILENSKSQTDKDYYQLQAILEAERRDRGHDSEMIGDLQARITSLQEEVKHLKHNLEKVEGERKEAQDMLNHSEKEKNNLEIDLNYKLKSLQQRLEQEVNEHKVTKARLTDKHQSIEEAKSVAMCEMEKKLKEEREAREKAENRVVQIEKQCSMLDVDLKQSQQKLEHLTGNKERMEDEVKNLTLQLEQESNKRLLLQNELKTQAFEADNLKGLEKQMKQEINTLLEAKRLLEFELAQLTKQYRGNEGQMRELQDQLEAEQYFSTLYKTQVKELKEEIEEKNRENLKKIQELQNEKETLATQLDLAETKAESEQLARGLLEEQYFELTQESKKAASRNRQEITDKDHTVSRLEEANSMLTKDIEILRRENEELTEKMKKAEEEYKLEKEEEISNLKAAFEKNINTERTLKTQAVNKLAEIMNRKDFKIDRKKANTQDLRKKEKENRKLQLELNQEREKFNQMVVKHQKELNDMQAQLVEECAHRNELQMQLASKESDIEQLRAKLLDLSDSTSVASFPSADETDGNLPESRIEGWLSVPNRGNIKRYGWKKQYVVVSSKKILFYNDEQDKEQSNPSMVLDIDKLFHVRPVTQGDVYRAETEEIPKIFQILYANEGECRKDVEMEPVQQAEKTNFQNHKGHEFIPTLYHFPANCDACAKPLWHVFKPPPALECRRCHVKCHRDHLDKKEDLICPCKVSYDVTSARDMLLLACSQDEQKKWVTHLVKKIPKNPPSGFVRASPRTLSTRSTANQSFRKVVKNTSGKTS
# Chain of CDK1/CycA (P06493 whole entry, species assumed): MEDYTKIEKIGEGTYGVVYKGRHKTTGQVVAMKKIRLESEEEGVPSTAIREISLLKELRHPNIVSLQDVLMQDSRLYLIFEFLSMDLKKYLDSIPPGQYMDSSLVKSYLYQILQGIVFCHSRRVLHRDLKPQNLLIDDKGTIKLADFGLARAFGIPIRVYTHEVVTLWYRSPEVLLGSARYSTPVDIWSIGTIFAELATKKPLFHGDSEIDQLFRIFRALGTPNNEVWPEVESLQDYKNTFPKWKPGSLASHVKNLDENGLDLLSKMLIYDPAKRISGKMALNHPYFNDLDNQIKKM
# Chain of CDK1/CycA (P20248 whole entry partner, species assumed): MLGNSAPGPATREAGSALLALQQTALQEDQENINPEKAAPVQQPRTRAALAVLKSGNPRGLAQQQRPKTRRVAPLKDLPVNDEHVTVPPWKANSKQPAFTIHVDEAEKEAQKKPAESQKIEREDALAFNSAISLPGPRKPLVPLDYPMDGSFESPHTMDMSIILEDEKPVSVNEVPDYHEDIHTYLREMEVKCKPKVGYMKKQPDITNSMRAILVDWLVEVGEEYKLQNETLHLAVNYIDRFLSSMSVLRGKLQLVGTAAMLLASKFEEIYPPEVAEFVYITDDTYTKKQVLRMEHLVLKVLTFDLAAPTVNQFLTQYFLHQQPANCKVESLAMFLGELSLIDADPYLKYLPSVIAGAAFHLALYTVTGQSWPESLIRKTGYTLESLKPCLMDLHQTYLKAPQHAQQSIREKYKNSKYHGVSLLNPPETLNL
structure (smiles),measurement,setting,value
"Cc1cccc(-c2[nH]c(CNc3ccccc3F)nc2-c2ccc3ncnn3c2)n1 [Example 2, N-((4-([1,2,4]triazolo[1,5-a]pyridin-6-yl)-5-(6-methylpyridin-2-yl)-1H-imidazol-2-yl)methyl)-2-fluoroaniline]",inhibition at 1 µM,DAPK1; [4],5%
same,inhibition at 10 µM,DAPK1; [5],11%
same,inhibition at 1 µM,CDK1/CycA; [4],5%
same,inhibition at 10 µM,CDK1/CycA; [5],2%
same,inhibition at 1 µM,PKA; [4],-7%
same,inhibition at 10 µM,PKA; [5],18%
same,IC50,VEGF-R1,391 nM
same,inhibition at 1 µM,MET wt; [4],-5%
same,inhibition at 10 µM,MET wt; [5],12%
same,inhibition at 1 µM,PKCα; [4],-9%
same,inhibition at 10 µM,PKCα; [5],4%
same,inhibition at 1 µM,ROCK1; [4],3%
same,inhibition at 10 µM,ROCK1; [5],9%
same,inhibition at 1 µM,PAK1; [4],-7%
same,inhibition at 10 µM,PAK1; [5],-3%
same,TGF-β1-induced cell migration,MCF10A cells [1],suppressed
same,TGF-β1-induced Smad2/3 nuclear translocation,[2],suppressed
same,MCF10A cell growth,MCF10A cells [3],slightly increased
